# From patent US7579487B2 (dated 2009)
row,SMILES,melting point
1,CC(C)=C(NS(=O)(=O)c1ccc(C)cc1)C(=O)O,188.5 to 189.5 °C
2,COc1ccc(S(=O)(=O)NC(C(=O)O)=C(C)C)cc1,162.5 to 163.5 °C
3,CC(C)=C(NS(=O)(=O)c1ccc(F)cc1)C(=O)O,172 to 173 °C
4,CC(C)=C(NS(=O)(=O)Cc1ccccc1)C(=O)O,194 to 195 °C
5,CC(C)=C(NS(=O)(=O)CCCc1ccccc1)C(=O)O,104.5 to 106 °C
6,Cc1ccc(S(=O)(=O)NC(C(=O)O)=C2CCCCC2)cc1,221 to 222 °C
7,O=C(O)C(NS(=O)(=O)c1ccc(F)cc1)=C1CCCCC1,214 to 215 °C
8,C/C=C(/NS(=O)(=O)c1ccc(C)cc1)C(=O)O,150.5 to 151.5 °C
9,Cc1ccc(S(=O)(=O)N/C(=C/C(C)C)C(=O)O)cc1,166.5 to 167.5 °C
10,COc1ccc(S(=O)(=O)NC(C(=O)O)C(C)C)cc1 (stereo not shown),116.5 to 117.5 °C
11,CC(C)[C@H](NS(=O)(=O)Cc1ccccc1)C(=O)O,120 to 121.5 °C
12,CC(C)[C@H](NS(=O)(=O)CCCc1ccccc1)C(=O)O,151 to 152 °C
13,Cc1ccc(S(=O)(=O)NC(C(=O)O)C2CCCCC2)cc1 (stereo not shown),182 to 184 °C
14,O=C(O)C(NS(=O)(=O)c1ccc(F)cc1)C1CCCCC1 (stereo not shown),143 to 145 °C
15,CCC(NS(=O)(=O)c1ccc(C)cc1)C(=O)O (stereo not shown),133.5 to 135.5 °C
16,Cc1ccc(S(=O)(=O)NC(CC(C)C)C(=O)O)cc1 (stereo not shown),122 to 123 °C
